# Test results from patent US9738932B2, “Biomarkers for cardiovascular side-effects induced by cox-2 inhibitory compounds” (FIRALIS SAS, priority 2005, dated 2017).
# Tested on: mRNA expression in cardiovascular tissues
# Test: Affymetrix GeneChip mRNA expression profiling of monkey tissues (iliac vein, pulmonary vein, aorta, carotid artery, heart) after two-week oral-gavage treatment
# Settings: iliac vein; group avg, Vioxx without A60055
# Method: Administration of compounds. A two-week oral-gavage treatment with the Cox-2 specific inhibitor COX189 (Lumiracoxib®, Novartis) in comparison with rofecoxib (Vioxx®, Merck), and celecoxib (Celebrex®, Pharmacia/Pfizer), and with the nonselective NSAID, diclofenac (Voltaren®, Novartis) was performed. […] The test items were administered daily at doses of 100 mg/kg/day, except Vioxx® which was administered at 50 mg/kg/day.
# Gene expression profiles. After a period of time (e.g., four weeks) of compound/drug administration, the treated animals are necropsied. 120 tissues are dissected and rapidly snap-frozen for genomics analysis. Organ samples are isolated for histopathological examinations and for gene expression localizations, such as by in situ hybridization.
# Gene expression profiles have been generated using the Affymetrix microarray technology. (i) RNA extraction and purification: Briefly, total RNA was obtained by acid guanidinium thiocyanate-phenol-chloroform extraction (Trizol®, Invitrogen Life Technologies, San Diego, Calif.) from each frozen tissue section and the total RNA was then purified on an affinity resin (Rneasy®, Qiagen) according to the manufacturer's instructions. Total RNA was quantified by the absorbance at λ=260 nm (A260 nm) and the purity was estimated by the ratio A260 nm/A280 nm. Integrity of the RNA molecules was confirmed by non-denaturing agarose gel electrophoresis. RNA was stored at −80° C. until analysis. […] (ii) GeneChip® experiment: All GeneChip® experiments were conducted in the Genomics Factory EU following recommendations by the manufacturer of the GeneChip® system (Affymetrix, Expression Analysis Technical Manual (Affymetrix, Santa Clara, Calif., 2005). Human U133A genome arrays were used for transcript expression analysis. Double stranded cDNA was synthesized with a starting amount of approximately 5 μg full-length total RNA using the Superscript Choice System (Invitrogen Life Technologies) in the presence of a T7-(dT) 24 DNA oligonucleotide primer. Following synthesis, the cDNA was purified by phenol/chloroform/isoamyl alcohol extraction and ethanol precipitation. The purified cDNA was then transcribed in vitro using the BioArray® High Yield RNA Transcript Labeling Kit (ENZO) in the presence of biotinylated ribonucleotides form biotin labelled cRNA. The labelled cRNA was then purified on an affinity resin (Rneasy, Qiagen), quantified and fragmented. An amount of approximately 10 μg labelled cRNA was hybridized for approximately 16 hours at 45° C. to an expression probe array. The array was then washed and stained twice with streptavidin-phycoerythrin (Molecular Probes) using the GeneChip Fluidics Workstation 400 (Affymetrix). The array was then scanned twice using a confocal laser scanner (GeneArray Scanner®, Agilent) resulting in one scanned image. This resulting “.dat-file” was processed using the MASS program (Affymetrix) into a “.cel-file”. The “.cel file” was then transferred to tan Affymetrix GeneChip Laboratory Information Management System (LIMS) database, which is connected to a UNIX Sun Solaris server through a network filing system that allows for the average intensities for all probes cells (CEL file) to be downloaded into an Oracle database (NPGN). Raw data was converted to expression levels using a “target intensity” of 100. […] The data were checked for quality and loaded in the GeneSpring® software versions 5.0 (Silicon Genetics, Calif., US) for statistical analysis.
# Quality control analysis of transcriptome data: The following quality measures were analysed for each sample: Scaling factor, background, percent present calls, AFFX-GAPDH 3′: AFFX-GAPDH 5′-ratio, AFFX-GAPDH 3′ variance, AFFX-Beta-actin 3′: AFFX-Beta-actin 5′-ratio.
smiles,measurement,value
O=C(O)Cc1ccccc1Nc1c(Cl)cccc1Cl [Voltaren],HFE (211329_x_at) avg fold change vs control,0.9 fold
same,HFE (211332_x_at) avg fold change vs control,0.9 fold
same,HFE (211863_x_at) avg fold change vs control,1.0 fold
same,HFE (211866_x_at) avg fold change vs control,0.9 fold
same,HHL (203020_at) avg fold change vs control,0.8 fold
same,HLA-A (211528_x_at) avg fold change vs control,1.1 fold
same,HLA-A (211529_x_at) avg fold change vs control,1.2 fold
same,HLA-A (211530_x_at) avg fold change vs control,1.6 fold
same,HLA-A (215313_x_at) avg fold change vs control,1.3 fold
same,HLA-B (208729_x_at) avg fold change vs control,1.2 fold
same,HLA-B (209140_x_at) avg fold change vs control,1.2 fold
same,HLA-B (211911_x_at) avg fold change vs control,1.2 fold
same,HLA-C (208812_x_at) avg fold change vs control,1.2 fold
same,HLA-C (214459_x_at) avg fold change vs control,1.3 fold
same,HLA-C (216526_x_at) avg fold change vs control,1.5 fold
same,HLA-DMA (217478_s_at) avg fold change vs control,1.3 fold
same,HLA-DMB (203932_at) avg fold change vs control,1.0 fold
same,HLA-DQA1 (212671_s_at) avg fold change vs control,1.2 fold
same,HLA-DQB1 (209823_x_at) avg fold change vs control,1.3 fold
same,HLA-DQB1 (211654_x_at) avg fold change vs control,1.6 fold
same,HLA-DQB1 (211656_x_at) avg fold change vs control,1.2 fold
same,HLA-DQB2 (212998_x_at) avg fold change vs control,2.2 fold
same,HLA-DRA (208894_at) avg fold change vs control,1.1 fold
same,HLA-DRA (210982_s_at) avg fold change vs control,1.0 fold
same,HLA-DRB1 (215193_x_at) avg fold change vs control,1.3 fold
same,HLA-DRB3 (209312_x_at) avg fold change vs control,1.1 fold
same,HLA-DRB6 (217362_x_at) avg fold change vs control,1.0 fold
same,HLA-E (200905_x_at) avg fold change vs control,1.2 fold
same,HLA-E (217456_x_at) avg fold change vs control,1.2 fold
same,HLA-F (204806_x_at) avg fold change vs control,1.0 fold
same,HLA-F (221875_x_at) avg fold change vs control,1.0 fold
same,ICAM1 (202638_s_at) avg fold change vs control,1.5 fold
same,ICAM1 (215485_s_at) avg fold change vs control,1.1 fold
same,ICSBP1 (204057_at) avg fold change vs control,1.1 fold
same,IFI27 (202411_at) avg fold change vs control,5.6 fold
same,IFI30 (201422_at) avg fold change vs control,1.4 fold
same,IFI44 (214453_s_at) avg fold change vs control,1.7 fold
same,IFIT1 (203153_at) avg fold change vs control,1.0 fold
same,IFIT2 (217502_at) avg fold change vs control,0.8 fold
same,IFIT4 (204747_at) avg fold change vs control,0.9 fold
same,IFITM2 (201315_x_at) avg fold change vs control,1.6 fold
same,IFITM3 (212203_x_at) avg fold change vs control,1.3 fold
same,IGF1 (209541_at) avg fold change vs control,1.2 fold
same,IGFBP4 (201508_at) avg fold change vs control,0.8 fold
same,IL1A (208200_at) avg fold change vs control,1.2 fold
same,IL2RG (204116_at) avg fold change vs control,1.2 fold
same,IL27RA (205926_at) avg fold change vs control,1.3 fold
same,INDO (210029_at) avg fold change vs control,1.4 fold
same,INPP5D (203332_s_at) avg fold change vs control,1.2 fold
same,IRF1 (202531_at) avg fold change vs control,1.1 fold
same,IRF7 (208436_s_at) avg fold change vs control,1.2 fold
same,ISGF3G (203882_at) avg fold change vs control,1.4 fold
same,ITGB2 (202803_s_at) avg fold change vs control,1.0 fold
same,JAK1 (214377_s_at) avg fold change vs control,1.1 fold
same,KLKB1 (206541_at) avg fold change vs control,1.2 fold
same,LAIR1 (208071_s_at) avg fold change vs control,0.8 fold
same,LCK (204890_s_at) avg fold change vs control,0.9 fold
same,LCP2 (205270_s_at) avg fold change vs control,1.2 fold
same,LILRB1 (207857_at) avg fold change vs control,0.8 fold
same,LILRB1 (211100_x_at) avg fold change vs control,1.2 fold
same,LILRB3 (208594_x_at) avg fold change vs control,1.4 fold
same,LILRB3 (210225_x_at) avg fold change vs control,1.3 fold
same,LRMP (204674_at) avg fold change vs control,1.6 fold
same,LY86 (205859_at) avg fold change vs control,1.2 fold
same,LY96 (206584_at) avg fold change vs control,1.4 fold
same,LYN (210754_s_at) avg fold change vs control,1.1 fold
same,MAF (209348_s_at) avg fold change vs control,0.9 fold
same,PCOLCE (202465_at) avg fold change vs control,0.3 fold
same,PLA2G4C (209785_s_at) avg fold change vs control,1.0 fold
same,PLCL2 (216217_at) avg fold change vs control,1.0 fold
same,PLSCR1 (202446_s_at) avg fold change vs control,1.5 fold
same,PRC1 (218009_s_at) avg fold change vs control,0.8 fold
same,PRG1 (201858_s_at) avg fold change vs control,1.1 fold
same,PRG1 (201859_at) avg fold change vs control,1.2 fold
same,PTPN22 (206060_s_at) avg fold change vs control,0.9 fold
same,PTPRC (207238_s_at) avg fold change vs control,1.3 fold
same,SOCS3 (206360_s_at) avg fold change vs control,1.4 fold
same,STAT1 (209969_s_at) avg fold change vs control,2.3 fold
same,STAT1 (AFFX-HUMISGF3A/M97935_5_at) avg fold change vs control,1.0 fold
same,STAT1 (AFFX-HUMISGF3A/M97935_MA_at) avg fold change vs control,1.0 fold
same,STAT1 (AFFX-HUMISGF3A/M97935_MB_at) avg fold change vs control,1.1 fold
same,TAPBP (208829_at) avg fold change vs control,1.0 fold
same,TCTEL1 (201999_s_at) avg fold change vs control,0.9 fold
same,TLR1 (210176_at) avg fold change vs control,1.3 fold
same,TLR2 (204924_at) avg fold change vs control,1.4 fold
same,TNFAIP3 (202643_s_at) avg fold change vs control,1.3 fold
same,TNFAIP3 (202644_s_at) avg fold change vs control,1.7 fold
same,TNFSF6 (210865_at) avg fold change vs control,1.2 fold
same,TNFSF10 (202687_s_at) avg fold change vs control,1.2 fold
same,TNFSF10 (202688_at) avg fold change vs control,1.1 fold
same,TRGC2 (211144_x_at) avg fold change vs control,1.0 fold
same,TRGC2 (216920_s_at) avg fold change vs control,1.2 fold
same,VCAM1 (203868_s_at) avg fold change vs control,1.4 fold
same,XCL1 (206366_x_at) avg fold change vs control,1.8 fold
same,XCL1 (214567_s_at) avg fold change vs control,0.5 fold
same,XLKD1 (219059_s_at) avg fold change vs control,1.4 fold
same,cig5 (213797_at) avg fold change vs control,2.1 fold
